In patent publication US8822449B2, “Substituted aminoindanes and analogs thereof, and the pharmaceutical use thereof” (Sanofi, priority 2008, dated 2014):

The compounds below were run against T1, sodium-proton exchanger of subtype 3 (NHE3) (Homo sapiens, UniProt P48764) (assay: Recovery of intracellular pH (pHi) after acidification in LAP1 cells stably expressing NHE3 (BCECF fluorescence, FLIPR)). Details: LAP1 cells stably expressing NHE3; pH recovery after acidification; range 1 is % inhibition at 10 μM; read-out: Activity range (inhibitory effect on NHE3).
T1 construct: expressed in transfected cells
T1 sequence (P48764 26-834): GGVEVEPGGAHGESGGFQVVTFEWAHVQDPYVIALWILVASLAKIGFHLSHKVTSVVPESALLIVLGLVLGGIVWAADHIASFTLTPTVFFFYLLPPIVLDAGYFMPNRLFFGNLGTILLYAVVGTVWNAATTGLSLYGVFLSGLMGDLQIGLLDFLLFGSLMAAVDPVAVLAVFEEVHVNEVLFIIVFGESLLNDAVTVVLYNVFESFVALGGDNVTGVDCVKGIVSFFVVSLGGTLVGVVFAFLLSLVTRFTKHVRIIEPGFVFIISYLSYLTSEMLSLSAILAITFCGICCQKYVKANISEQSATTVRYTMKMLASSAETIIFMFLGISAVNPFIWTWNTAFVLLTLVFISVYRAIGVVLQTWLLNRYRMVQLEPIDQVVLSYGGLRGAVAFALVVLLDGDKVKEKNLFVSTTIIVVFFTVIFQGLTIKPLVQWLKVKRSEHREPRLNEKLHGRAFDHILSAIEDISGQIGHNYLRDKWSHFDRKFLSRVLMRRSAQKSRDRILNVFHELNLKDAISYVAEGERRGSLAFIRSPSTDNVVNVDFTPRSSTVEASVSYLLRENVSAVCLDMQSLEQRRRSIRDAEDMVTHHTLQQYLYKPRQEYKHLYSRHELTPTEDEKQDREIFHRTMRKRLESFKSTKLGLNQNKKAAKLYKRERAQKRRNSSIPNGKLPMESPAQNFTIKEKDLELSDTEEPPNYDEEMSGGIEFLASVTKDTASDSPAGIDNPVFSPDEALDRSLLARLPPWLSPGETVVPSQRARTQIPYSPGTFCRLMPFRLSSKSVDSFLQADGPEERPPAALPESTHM
Assay type: cell-based
Method: In this assay, the recovery of the intracellular pH (pHi) of LAP1 cells which stably express the sodium-proton exchanger of subtype 3 (NHE3) after acidification was determined. The recovery occurs even under bicarbonate-free conditions with functional NHE3. To this end, the pHi was determined using the pH-sensitive fluorescent dye BCECF (Molecular Probes, Eugene, Oreg., USA, employing the precursors BCECF-AM). The cells were initially incubated with BCECF (5 μM BCECF-AM) in NH4Cl buffer (NH4Cl buffer: 115 mM cholineCl, 20 mM NH4Cl, 5 mM KCl, 1 mM CaCl2, 1 mM MgCl2, 20 mM Hepes, 5 mM glucose, a pH of 7.4 was adjusted with 1 M KOH). The intracellular acidification was induced by washing the cells incubated in NH4Cl buffer with NH4Cl-free buffer (133.8 mM choline chloride, 4.7 mM KCl, 1.25 mM CaCl2, 1.25 mM MgCl2, 0.97 mM K2HPO4, 0.23 mM KH2PO4, 5 mM Hepes, 5 mM glucose, a pH of 7.4 was adjusted with 1 M KOH). After the washing step, 90 μl of the NH4Cl-free buffer were left on the cells. The pH recovery was started by adding 90 μl of Na^+-containing buffer (133.8 mM NaCl, 4.7 mM KCl, 1.25 mM CaCl2, 1.25 mM MgCl2, 0.97 mM Na2HPO4, 0.23 mM NaH2PO4, 10 mM Hepes, 5 mM glucose, a pH of 7.4 was adjusted with 1 M NaOH) in a measuring instrument (FLIPR, “Fluorometric Imaging Plate Reader”, Molecular Devices, Sunnyvale, Calif., USA). The BCECF fluorescence was determined with an excitation wavelength of 498 nm and the FLIPR emission filter 1 (bandpass from 510 to 570 nm). The subsequent changes in fluorescence as a measure of pH recovery were recorded for two minutes. To calculate the NHE3-inhibitory power of the tested substances, the cells were initially investigated in buffers with which complete or absolutely no pH recovery took place. For complete pH recovery (100%), the cells were incubated in Na^+-containing buffer (see above), and to determine the 0% value were incubated in Na^+-free buffer (see above). The substances to be tested were made up in Na^+-containing buffer. The recovery of the intracellular pH at each tested concentration of a substance was expressed as percent of the maximum recovery.
The IC50 of the respective substance for NHE3 was calculated from the percentages of pH recovery using the program XLFit (idbs, Surrey, UK).

Compared with COc1cccc(F)c1O[C@@H]1c2ccccc2C[C@H]1N1C[C@H]2CNC[C@H]2C1 (racemic) [Example 5, 2-[rac-trans-(1,2)-1-(2-fluoro-6-methoxyphenoxy)indan-2-yl]octahydropyrrolo[3,4-c]pyrrole], N#Cc1ccc(O[C@@H]2c3ccccc3C[C@H]2N2C[C@H]3CNC[C@H]3C2)c(Cl)c1 (racemic) [Example 445, 3-chloro-4-[rac-trans-(1,2)-2-(hexahydropyrrolo[3,4-c]pyrrol-2-yl)indan-1-yloxy]benzonitrile] is lower in IC50: 1000 to 10000 nM for the first, less than 1000 nM for the second. The second is the more potent here.

First: Cc1nnc(C)n1-c1ccc(O[C@H]2c3cc(Cl)cc(Cl)c3C[C@@H]2NC2CCCC2)c(F)c1 [Example 746, Cyclopentyl-{trans-(1S,2S)-4,6-dichloro-1-[4-(3,5-dimethyl-[1,2,4]triazol-4-yl)-2-fluoro-phenoxy]-indan-2-yl}-amine]
Second: Cc1nnc(C)n1-c1ccc(F)c(O[C@H]2c3cc(Cl)cc(Cl)c3C[C@@H]2N2CC[C@@H](O)C2)c1 [Example 114, (R)-1-{(1S,2S)-4,6-dichloro-1-[5-(3,5-dimethyl-[1,2,4]triazol-4-yl)-2-fluorophenoxy]indan-2-yl}pyrrolidin-3-ol]
The IC50 of the first is lower: less than 1000 nM for the first, 1000 to 10000 nM for the second.

CC(=O)Nc1cccc(OC2c3ccccc3CC2N(C)C)c1 (racemic) [Example 638, N-[3-(rac-trans-(1,2)-2-dimethylaminoindan-1-yloxy)phenyl]acetamide] and CC(=O)Nc1cccc(O[C@H]2c3cc(Cl)cc(Cl)c3C[C@@H]2N2CCNCC2)c1 (racemic) [Example 647, N-[3-(rac-trans-(1,2)-4,6-dichloro-2-piperazin-1-ylindan-1-yloxy)phenyl]acetamide] fall in the same range of IC50: 1000 to 10000 nM for the first, 1000 to 10000 nM for the second.

CS(=O)(=O)c1ccc(O[C@H]2c3cc(Cl)cc(Cl)c3C[C@@H]2N2CCC3(CCNC3)C2)cc1 (mixture of isomers) [Example 378, 2-[trans-(1S,2S)-4,6-dichloro-1-(4-methanesulfonylphenoxy)indan-2-yl]-2,7-diaza-spiro[4.4]nonane] and C[C@@H]1CN([C@H]2Cc3c(Cl)cc(Cl)cc3[C@@H]2Oc2ccc(S(C)(=O)=O)cc2)CCN1 [Example 101, (R)-1-[trans-(1S,2S)-4,6-dichloro-1-(4-methanesulfonylphenoxy)indan-2-yl]-3-methylpiperazine] cannot be ordered by IC50: less than 1000 nM for the first, less than 1000 nM for the second.

First: NS(=O)(=O)c1ccc(OC2c3ccccc3CC2N2CC[C@@H](O)C2)cc1 (mixture of isomers) [Example 527, 4-[rac-trans-(1,2)-2-((R)-3-Hydroxypyrrolidin-1-yl)indan-1-yloxy]benzenesulfonamide]
Second: CC1(C)NC(=O)N(c2ccc(O[C@H]3c4cc(Cl)cc(Cl)c4C[C@@H]3N3CC[C@@H](O)C3)cc2)C1=O [Example 425, 3-{4-[(1S,2S)-4,6-dichloro-2-((R)-3-hydroxypyrrolidin-1-yl)indan-1-yloxy]phenyl}-5,5-dimethylimidazolidine-2,4-dione]
The IC50 of the first is higher: 1000 to 10000 nM for the first, less than 1000 nM for the second. The second is the more potent here.

O=C1CCCN1c1ccc(O[C@H]2c3cc(Cl)cc(Cl)c3C[C@@H]2N2CC[C@@H](O)C2)c(Cl)c1 [Example 321, 1-{3-chloro-4-[(1S,2S)-4,6-dichloro-2-((R)-3-hydroxypyrrolidin-1-yl)indan-1-yloxy]phenyl}pyrrolidin-2-one] and O=C1CCCN1c1ccc(Cl)c(O[C@H]2c3cc(Cl)cc(Cl)c3C[C@@H]2N2CC[C@@H](O)C2)c1 [Example 336, 1-{4-chloro-3-[(1S,2S)-4,6-dichloro-2-((R)-3-hydroxypyrrolidin-1-yl)indan-1-yloxy]phenyl}pyrrolidin-2-one] cannot be ordered by IC50: less than 1000 nM for the first, less than 1000 nM for the second.

First: CC(C)[C@H]1COC(=O)N1c1ccc(F)c(O[C@H]2c3cc(Cl)cc(F)c3C[C@@H]2N2CC[C@@H](O)C2)c1 [Example 210, (S)-3-{3-[(1S,2S)-6-chloro-4-fluoro-2-((R)-3-hydroxypyrrolidin-1-yl)indan-1-yloxy]-4-fluorophenyl}-4-isopropyloxazolidin-2-one]
Second: Cc1c(O[C@H]2c3cc(Cl)cc(F)c3C[C@@H]2N2CC[C@@H](O)C2)ccc(-n2c(C)nnc2C)c1C [Example 141, (R)-1-{trans-(1S,2S)-6-chloro-1-[4-(3,5-dimethyl-[1,2,4]triazol-4-yl)-2,3-dimethylphenoxy]-4-fluoroindan-2-yl}pyrrolidin-3-ol]
The IC50 of the first is higher: 1000 to 10000 nM for the first, less than 1000 nM for the second. The second is the more potent here.

COc1cc(Cl)cc(O[C@H]2c3ccccc3CC[C@@H]2N2CCC[C@H](N)C2)c1 (racemic) [Example 163, (S)-1-[rac-trans-(1,2)-1-(3-chloro-5-methoxyphenoxy)-1,2,3,4-tetrahydronaphthalen-2-yl]piperidin-3-ylamine] and N[C@@H]1CCCN([C@H]2CCc3ccccc3[C@@H]2Oc2cccc(-n3cnnn3)c2)C1 (racemic) [Example 60, (R)-1-[rac-trans-(1,2)-1-(3-tetrazol-1-ylphenoxy)-1,2,3,4-tetrahydronaphthalen-2-yl]piperidin-3-ylamine] fall in the same range of IC50: 1000 to 10000 nM for the first, 1000 to 10000 nM for the second.

Compared with CS(=O)(=O)c1ccc(O[C@@H]2c3cc(Cl)cc(Cl)c3C[C@H]2n2ccnc2)cc1 (racemic) [Example 278, 1-[rac-trans-(1,2)-4,6-dichloro-1-(4-methanesulfonylphenoxy)indan-2-yl]-1H-imidazole], CN1CCCN([C@H]2Cc3c(Cl)cc(Cl)cc3[C@@H]2Oc2ccc(S(C)(=O)=O)cc2)CC1 [Example 305, 1-[trans-(1S,2S)-4,6-dichloro-1-(4-methanesulfonylphenoxy)indan-2-yl]-4-methyl-[1,4]diazepane] is lower in IC50: 1000 to 10000 nM for the first, less than 1000 nM for the second.

First: CN(C1CCNCC1)[C@@H]1Cc2ccccc2[C@H]1Oc1ccc(N2CCNCC2)cc1 (racemic) [Example 630, methyl-[rac-trans-(1,2)-1-(4-piperazin-1-ylphenoxy)indan-2-yl]piperidin-4-ylamine]
Second: CC(=O)Nc1cccc(O[C@@H]2c3cc(Cl)cc(F)c3C[C@H]2N2CCC[C@@H](N)C2)c1 (racemic) [Example 678, N-{3-[rac-trans-(1,2)-2-((R)-3-aminopiperidin-1-yl)-6-chloro-4-fluoroindan-1-yloxy]phenyl}acetamide]
The IC50 of the first is higher: 1000 to 10000 nM for the first, less than 1000 nM for the second. The second is the more potent here.

Cc1c(O[C@H]2c3cc(Cl)cc(Cl)c3C[C@@H]2N2CC[C@@H](O)C2)cccc1-n1ccn(C)c1=O [Example 312, 1-{3-[(1S,2S)-4,6-dichloro-2-((R)-3-hydroxypyrrolidin-1-yl)indan-1-yloxy]-2-methylphenyl}-3-methyl-1,3-dihydroimidazol-2-one] and CS(=O)(=O)c1ccc(O[C@H]2c3cc(Cl)ccc3C[C@@H]2N2CCN(CCO)CC2)cc1 (racemic) [Example 384, 2-{4-[rac-trans-(1,2)-6-chloro-1-(4-methanesulfonylphenoxy)indan-2-yl]piperazin-1-yl}-ethanol] fall in the same range of inhibition at 10 µM: 20 to 50% for the first, 20 to 50% for the second.

CS(=O)(=O)c1ccc(O[C@@H]2c3ccccc3C[C@H]2NC2CCCCCC2)cc1 (racemic) [Example 711, Cycloheptyl-[rac-trans-(1,2)-1-(4-methanesulfonyl-phenoxy)-indan-2-yl]-amine] and CS(=O)(=O)c1ccc(O[C@H]2c3ccccc3C[C@@H]2NCc2ccccc2)cc1 (racemic) [Example 597, benzyl[1-(4-methanesulfonylphenoxy)indan-2-yl]amine] fall in the same range of inhibition at 10 µM: 20 to 50% for the first, 20 to 50% for the second.

N[C@@H]1CCCN([C@H]2CCc3ccccc3[C@@H]2Oc2ccc(F)cc2F)C1 (racemic) [Example 32, (R)-1-[rac-trans-(1,2)-1-(2,4-difluorophenoxy)-1,2,3,4-tetrahydronaphthalen-2-yl]piperidin-3-ylamine] showed an inhibition at 10 µM of 20 to 50%.
